These results are taken from publication PMC7091509 (Biophysical Journal, 2020).

Entries after “also recorded” stand apart in the source; their conditions may differ. Some results are limits rather than exact numbers.

In experiment [1] the test system is first vinculin head domain (Vd1). Kind of experiment: AFM single-molecule force spectroscopy. The experiment is classed as binding. Conditions: for relative mechanical stability of Vd1-VBS complex / ratio of unfolding to direct unbinding (UF/UB): shear-like pulling; for relative mechanical stability of Vd1-VBS complex: AFM experiments and simulations; for ratio of unfolding to direct unbinding (UF/UB): derived from AFM experiments.

The subject of a further experiment is vinculin. Conditions: cited from earlier work.
The target of experiment [2] is first vinculin head domain Vd1 (aa 1-258), SII-Vd1-ybbR (UniProt P18206). In words: AFM single-molecule force spectroscopy.
[3] abbreviates: C-terminal pulling, bimodal distribution, 800 nm/s.

first vinculin head domain Vd1 (aa 1-258), SII-Vd1-ybbR, sequence (P18206 1-258): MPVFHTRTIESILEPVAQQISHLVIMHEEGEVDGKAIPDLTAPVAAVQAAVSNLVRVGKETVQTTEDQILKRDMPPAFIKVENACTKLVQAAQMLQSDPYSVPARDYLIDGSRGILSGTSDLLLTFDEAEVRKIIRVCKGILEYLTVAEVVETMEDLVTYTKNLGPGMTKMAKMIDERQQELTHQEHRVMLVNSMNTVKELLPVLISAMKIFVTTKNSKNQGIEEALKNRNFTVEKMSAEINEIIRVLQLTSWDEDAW

As for GEMVGQARILAQATSDLVNAIKDA [Talin VBS11], the “direct unbinding in experiment” value in experiment [1] (C-terminal (shear-like) pulling, 800 nm/s) was “almost no direct unbinding”. In experiment [1] (setting [3]), the “rupture force of high-force population” value is reported as over 60 pN and the “rupture force of low-force population” value is under 60 pN. Further, the high-force population result in experiment [1] (N-terminal pulling, 800 nm/s) is reported as “disappeared”. Further, the “unfolding pattern in AFM traces” value in experiment [1] (shear-like pulling (C-terminal; N-terminal for α-actinin), 800 nm/s) was “shows a population of high-force traces with multiple unfolding peaks”. Moreover, in experiment [1], the “relative mechanical stability of Vd1-VBS complex” value is given as “formed the most stable complex” and the “ratio of unfolding to direct unbinding (UF/UB)” value was “≈ 2”.
Take ILEAAKSIAAATSALVKAASAAQRE [Talin VBS58]: in experiment [1], the “relative mechanical stability of Vd1-VBS complex” value is recorded as “least stable complex; also recorded: low mechanical stability” and the “ratio of unfolding to direct unbinding (UF/UB)” value is “≈ 0.4”. In the experiment with vinculin, the “interaction in SPOT-peptide assay” value is “strong interaction”.
On to “talin VBS11 peptide with C-terminal cysteine (GSGS-VBS-GSGS-C) (from UniProt Q9Y490 820-843)”, for which, in experiment [2], the UF/UB (ratio of unfolding to direct unbinding) came to 2; the rupture force, high-force population is over 60 pN; the rupture force, low-force population is under 60 pN.
On to “talin VBS11 peptide with N-terminal cysteine (C-GSGS-VBS-GSGS) (from UniProt Q9Y490 820-843)”, for which the UF/UB (ratio of unfolding to direct unbinding) in experiment [2] is 0.
On to “talin VBS58 peptide with C-terminal cysteine (GSGS-VBS-GSGS-C) (from UniProt Q9Y490 2345-2369)”, for which, in experiment [2], the UF/UB (ratio of unfolding to direct unbinding) is 0.4 and the mean rupture force was 45 to 60 pN.
On to “talin VBS58 peptide with N-terminal cysteine (C-GSGS-VBS-GSGS) (from UniProt Q9Y490 2345-2369)”, for which the UF/UB (ratio of unfolding to direct unbinding) in experiment [2] worked out at 0.
